The results in this text go back to patent US10464922B2, “Metalloenzyme inhibitor compounds” (NQP 1598 LTD., priority 2015, dated 2019).

In brackets after ≈: the same amount, converted by molar mass. Some results are limits rather than exact numbers.

In one assay the test system is A. fumigatus. Briefly: A. fumigatus MIC at 100% growth inhibition (CLSI M38-A2). The class given is cell-based, Aspergillus fumigatus. To be noted: 100% growth inhibition, range tested 8-0.0078 μg/mL, values given as ranges; for MIC: Aspergillus fumigatus, read-out: Aspergillus fumigatus MIC. The protocol: A. fumigatus MICs were determined at 100% growth inhibition following CLSI guidelines at a concentration range of 8-0.0078 μg/mL (CLSI M38-A2).

The test system of a further assay is C. albicans (ATCC 90028). Briefly: Minimum inhibitory concentration, in vitro broth microdilution assay (CLSI M27-A2). The class given is cell-based, Candida albicans. To be noted: ATCC 90028, about 50% growth reduction, 2 days at 36° C., range tested 8-0.0078 μg/mL, values given as ranges; for MIC: Candida albicans, ATCC90028, 48 h, read-out: Candida albicans MIC. The protocol: The antifungal potency of the test compounds was measured using the in vitro broth microdilution assay under assay conditions described by the Clinical and Laboratory Standards Institute (CLSI M27-A2). The test compounds were dissolved in 100% DMSO, suspended completely by sonication or vortexing, diluted by 2-fold serial titrations in the same vehicle, for a total of 11 test concentrations. A 4 μL aliquot of each dilution was added to 196 μL of RPMI-1640+MOPS medium seeded with the C. albicans (ATCC 90028) suspension in wells of a 96 well plate (fungal cell count: 1×10^3 to 1×10^4 colony forming units per mL). The final volume was 200 μL in each well and the final DMSO concentration was 2 percent. The inoculated plates were incubated for 2 days at 36° C. Following incubation, the test plates were visually examined and wells were scored for growth to define the minimum inhibitory concentration. […] Each test substance was evaluated in duplicate. Vehicle-control and an active reference agent (e.g., posaconazole) were used as blank and positive controls, respectively.

Usually MIC stands for the least concentration at which growth counts as inhibited. For the molecule `OC(c1cc(F)cc(N2CCN(c3ccc(-c4ccc(C(F)(F)[C@](O)(Cn5cnnn5)c5ccc(F)cc5F)nc4)cc3)CC2)c1)C(F)(F)F` (stereo partly drawn) [Example 100, (2R)-2-(2,4-difluorophenyl)-1,1-difluoro-1-(5-(4-(4-(3-fluoro-5-(2,2,2-trifluoro-1-hydroxyethyl)phenyl)piperazin-1-yl)phenyl)pyridin-2-yl)-3-(1H-tetrazol-1-yl) propan-2-ol], the MIC with A. fumigatus lay within 0.25 to 1 µg/mL (≈ 0.354 to 1.42 µM); in the assay on C. albicans (ATCC 90028) it was 0.0078 to 0.01 µg/mL (≈ 0.0111 to 0.0142 µM).
In the case of `O=c1n(CC(F)(F)F)ccn1-c1ccc(N2CCN(c3ccc(-c4ccc(C(F)(F)[C@](O)(Cn5cnnn5)c5ccc(F)cc5F)nc4)cc3)CC2)cc1` [Example 96], the figures for the MIC in the assay with A. fumigatus and in the assay on C. albicans (ATCC 90028) were 0.25 to 1 µg/mL (≈ 0.332 to 1.33 µM) and 0.0078 to 0.01 µg/mL (≈ 0.0103 to 0.0133 µM), respectively.
As to `CN(C)Cc1ccc(N2CCN(c3ccc(-c4ccc(C(F)(F)[C@](O)(Cn5cnnn5)c5ccc(F)cc5F)nc4)cc3)CC2)cc1` [Example 30], the MIC fell in the range of 0.25 to 1 µg/mL (≈ 0.387 to 1.55 µM) in the assay on A. fumigatus and 0.0078 to 0.01 µg/mL (≈ 0.0121 to 0.0155 µM) with C. albicans (ATCC 90028).
`OC(c1cn(-c2ccc(N3CCN(c4ccc(-c5ccc(C(F)(F)C(O)(Cn6cnnn6)c6ccccc6F)nc5)cc4)CC3)cn2)nn1)C(F)(F)F` (single isomer, unassigned; (-)) [110(−), (−)-1,1-difluoro-2-(2-fluorophenyl)-3-(1H-tetrazol-1-yl)-1-(5-(4-(4-(6-(4-(2,2,2-trifluoro-1-hydroxyethyl)-1H-1,2,3-triazol-1-yl)pyridin-3-1)piperazin-1-yl)phenyl)pyridin-2-yl) propan-2-ol]: in the assay on A. fumigatus, the “Aspergillus fumigatus MIC” value was more than 8 µg/mL. Moreover, the “Candida albicans MIC” value with C. albicans (ATCC 90028) is more than 8 µg/mL.
Take `CC[C@@H]([C@H](C)O)n1ncn(-c2ccc(N3CCN(c4ccc(-c5ccc(C(F)(F)[C@](O)(Cn6cnnn6)c6ccc(F)cc6)nc5)cc4)CC3)cn2)c1=O` [109(+), (+)-4-(5-(4-(4-(6-((R)-1,1-difluoro-2-(4-fluorophenyl)-2-hydroxy-3-(1H-tetrazol-1-yl)propyl)pyridin-3-yl)phenyl)piperazin-1-yl)pyridin-2-yl)-2-((2S,3S)-2-hydroxypentan-3-yl)-2,4-dihydro-3H-1,2,4-triazol-3-one]: in the assay with A. fumigatus, the “Aspergillus fumigatus MIC” value lay in the range of 0.25 to 1.0 µg/mL. Moreover, the “Candida albicans MIC” value with C. albicans (ATCC 90028) was not above 0.0078 to 0.010 µg/mL.
As to `N#Cc1ccc(N2CCN(c3ccc(-c4ccc(C(F)(F)[C@](O)(Cn5cnnn5)c5ccc(F)cc5F)nc4)cc3)CC2)cn1` [Example 7, (R)-5-(4-(4-(6-(2-(2,4-difluorophenyl)-1,1-difluoro-2-hydroxy-3-(1H-tetrazol-1-yl)propyl)pyridin-3-yl)phenyl)piperazin-1-yl) picolinonitrile], the MIC in the assay on A. fumigatus lay in the range of 0.25 to 1 µg/mL (≈ 0.406 to 1.62 µM); in the assay on C. albicans (ATCC 90028), 0.0078 to 0.01 µg/mL (≈ 0.0127 to 0.0162 µM).
The corresponding values for `N#Cc1ccc(N2CCC(c3ccc(-c4ccc(C(F)(F)[C@](O)(Cn5cnnn5)c5ccc(F)cc5F)nc4)cc3)CC2)cc1` [Example 22, (R)-4-(4-(4-(6-(2-(2,4-difluorophenyl)-1,1-difluoro-2-hydroxy-3-(1H-tetrazol-1-yl)propyl)pyridin-3-yl)phenyl)piperidin-1-yl) benzonitrile] are 0.25 to 1 µg/mL (≈ 0.407 to 1.63 µM) and 0.0078 to 0.01 µg/mL (≈ 0.0127 to 0.0163 µM).
Take `CCC(C(C)O)n1ccc(N2CCN(c3ccc(-c4ccc(C(F)(F)[C@](O)(Cn5cnnn5)c5ccc(F)cc5F)nc4)cc3)CC2)cc1=O` (stereo partly drawn) [Example 37, 4-(4-(4-(6-((R)-2-(2,4-difluorophenyl)-1,1-difluoro-2-hydroxy-3-(1H-tetrazol-1-yl)propyl)pyridin-3-yl)phenyl)piperazin-1-yl)-1-(2-hydroxypentan-3-yl) pyridin-2(1H)-one]: the values for the MIC in the assay with A. fumigatus and in the assay on C. albicans (ATCC 90028) were more than 8 µg/mL and 0.01 to 0.1 µg/mL (≈ 0.0144 to 0.144 µM), respectively.
Consider `OC(c1cn(-c2ccc(N3CCN(c4ccc(-c5ccc(C(F)(F)C(O)(Cn6cnnn6)c6ccccc6F)nc5)cc4)CC3)cc2)nn1)C(F)(F)F` (single isomer, unassigned; (-)) [108(−)], for which the “Aspergillus fumigatus MIC” value in the assay on A. fumigatus is more than 8 µg/mL. Also, in the assay with C. albicans (ATCC 90028), the “Candida albicans MIC” value was more than 8 µg/mL.
Turning to `OC(c1cccc(N2CCN(c3ccc(-c4ccc(C(F)(F)[C@](O)(Cn5cnnn5)c5ccc(F)cc5F)nc4)cc3)CC2)c1)C(F)(F)F` (stereo partly drawn) [Example 86, (2R)-2-(2,4-difluorophenyl)-1,1-difluoro-3-(1H-tetrazol-1-yl)-1-(5-(4-(4-(3-(2,2,2-trifluoro-1-hydroxyethyl)phenyl)piperazin-1-yl)phenyl)pyridin-2-yl) propan-2-ol], the MIC with A. fumigatus fell in the range of 0.25 to 1 µg/mL (≈ 0.364 to 1.45 µM); in the assay with C. albicans (ATCC 90028), 0.0078 to 0.01 µg/mL (≈ 0.0113 to 0.0145 µM).
As to `CC[C@@H]([C@H](C)O)N(C)C(=O)c1ccc(N2CCN(c3ccc(-c4ccc(C(F)(F)[C@](O)(Cn5cnnn5)c5ccc(F)cc5F)nc4)cc3)CC2)cc1` [Example 83, 4-(4-(4-(6-((R)-2-(2,4-difluorophenyl)-1,1-difluoro-2-hydroxy-3-(1H-tetrazol-1-yl)propyl)pyridin-3-yl)phenyl)piperazin-1-yl)-N-((2S,3S)-2-hydroxypentan-3-yl)-N-methylbenzamide], the MIC with A. fumigatus lay in the range of 0.25 to 1 µg/mL (≈ 0.341 to 1.36 µM); in the assay on C. albicans (ATCC 90028) it was 0.01 to 0.1 µg/mL (≈ 0.0136 to 0.136 µM).
As for `CCC(C)n1ncn(-c2ccc(N3CCN(c4ccc(-c5ccc(C(F)(F)[C@](O)(Cn6cnnn6)c6ccc(F)cc6F)nc5)cc4)CC3)cc2)c1=O` (stereo partly drawn) [Example 55, 2-(sec-butyl)-4-(4-(4-(4-(6-((R)-2-(2,4-difluorophenyl)-1,1-difluoro-2-hydroxy-3-(1H-tetrazol-1-yl)propyl)pyridin-3-yl)phenyl)piperazin-1-yl)phenyl)-2,4-dihydro-3H-1,2,4-triazol-3-one], the results for the MIC in the assay with A. fumigatus and with C. albicans (ATCC 90028) were 0.062 to 0.25 µg/mL (≈ 0.0851 to 0.343 µM) and 0.01 to 0.1 µg/mL (≈ 0.0137 to 0.137 µM), respectively.
On to `CC(C)(O)Cn1ncn(-c2ccc(N3CCN(c4ccc(-c5ccc(C(F)(F)[C@](O)(Cn6cnnn6)c6ccc(F)cc6F)nc5)cc4)CC3)cc2)c1=O` [Example 67, (R)-4-(4-(4-(4-(6-(2-(2,4-difluorophenyl)-1,1-difluoro-2-hydroxy-3-(1H-tetrazol-1-yl)propyl)pyridin-3-yl)phenyl)piperazin-1-yl)phenyl)-2-(2-hydroxy-2-methylpropyl)-2,4-dihydro-3H-1,2,4-triazol-3-one], for which the minimum inhibitory concentration (MIC) with A. fumigatus fell in the range of 0.062 to 0.25 µg/mL (≈ 0.0832 to 0.336 µM); in the assay on C. albicans (ATCC 90028), 0.0078 to 0.01 µg/mL (≈ 0.0105 to 0.0134 µM).
The like results for `OC(CC(F)(F)F)c1ccc(N2CCN(c3ccc(-c4ccc(C(F)(F)[C@](O)(Cn5cnnn5)c5cccc(F)c5)nc4)cc3)CC2)cn1` (single isomer, unassigned; (-)) [119(−)] were, in that order, more than 8 µg/mL and 0.1 to 1 µg/mL (≈ 0.146 to 1.46 µM).
On to `OC(c1ccc(N2CCN(c3ccc(-c4ccc(C(F)(F)[C@](O)(Cn5cnnn5)c5ccc(F)cc5F)nc4)cc3)CC2)s1)C(F)(F)F` (stereo partly drawn) [Example 62, (2R)-2-(2,4-difluorophenyl)-1,1-difluoro-3-(1H-tetrazol-1-yl)-1-(5-(4-(4-(5-(2,2,2-trifluoro-1-hydroxyethyl)thiophen-2-yl)piperazin-1-yl)phenyl)pyridin-2-yl) propan-2-ol], for which the MIC fell in the range of 0.25 to 1 µg/mL (≈ 0.36 to 1.44 µM) with A. fumigatus and 0.0078 to 0.01 µg/mL (≈ 0.0112 to 0.0144 µM) in the assay on C. albicans (ATCC 90028).
For the molecule `CC[C@@H]([C@H](C)O)n1cc(-c2ccc(N3CCN(c4ccc(-c5ccc(C(F)(F)[C@](O)(Cn6cnnn6)c6ccc(F)cc6F)nc5)cc4)CC3)cc2)nn1` [Example 95, (2S,3S)-3-(4-(4-(4-(4-(6-((R)-2-(2,4-difluorophenyl)-1,1-difluoro-2-hydroxy-3-(1H-tetrazol-1-yl)propyl)pyridin-3-yl)phenyl)piperazin-1-yl)phenyl)-1H-1,2,3-triazol-1-yl) pentan-2-ol], the MIC was 0.25 to 1 µg/mL (≈ 0.337 to 1.35 µM) with A. fumigatus and 0.0078 to 0.01 µg/mL (≈ 0.0105 to 0.0135 µM) with C. albicans (ATCC 90028).
Turning to `CC(C)C(C(C)O)n1ncn(-c2ccc(N3CCN(c4ccc(-c5ccc(C(F)(F)[C@](O)(Cn6cnnn6)c6ccc(F)cc6F)nc5)cc4)CC3)cc2)c1=O` (stereo partly drawn) [Example 103, 4-(4-(4-(4-(6-((R)-2-(2,4-difluorophenyl)-1,1-difluoro-2-hydroxy-3-(1H-tetrazol-1-yl)propyl)pyridin-3-yl)phenyl)piperazin-1-yl)phenyl)-2-(2-hydroxy-4-methylpentan-3-yl)-2,4-dihydro-3H-1,2,4-triazol-3-one], the MIC in the assay with A. fumigatus was in the range of 0.062 to 0.25 µg/mL (≈ 0.0802 to 0.323 µM); with C. albicans (ATCC 90028), 0.0078 to 0.01 µg/mL (≈ 0.0101 to 0.0129 µM).
Turning to `CC[C@H](NC(=O)c1ccc(N2CCN(c3ccc(-c4ccc(C(F)(F)[C@](O)(Cn5cnnn5)c5ccc(F)cc5F)nc4)cc3)CC2)cc1)[C@H](C)O` [Example 57, 4-(4-(4-(6-((R)-2-(2,4-difluorophenyl)-1,1-difluoro-2-hydroxy-3-(1H-tetrazol-1-yl)propyl)pyridin-3-yl)phenyl)piperazin-1-yl)-N-((2S,3S)-2-hydroxypentan-3-yl) benzamide], the minimal inhibitory concentration (MIC) fell in the range of 0.25 to 1 µg/mL (≈ 0.348 to 1.39 µM) in the assay with A. fumigatus and 0.01 to 0.1 µg/mL (≈ 0.0139 to 0.139 µM) in the assay with C. albicans (ATCC 90028).
The corresponding values for `CC(O)c1ccc(N2CCN(c3ccc(-c4ccc(C(F)(F)[C@](O)(Cn5cnnn5)c5ccc(F)cc5F)nc4)cc3)CC2)cc1` (stereo partly drawn) [Example 56, (2R)-2-(2,4-difluorophenyl)-1,1-difluoro-1-(5-(4-(4-(4-(1-hydroxyethyl)phenyl)piperazin-1-yl)phenyl)pyridin-2-yl)-3-(1H-tetrazol-1-yl) propan-2-ol] are 0.25 to 1 µg/mL (≈ 0.395 to 1.58 µM) and 0.01 to 0.1 µg/mL (≈ 0.0158 to 0.158 µM).
